Measurements as given in patent US12415799B2, “Indazole-fused cyclic compound” (Zhejiang Yangli Pharmaceutical Technology Co., Ltd., priority 2020, dated 2025).

Assay: In vivo pharmacokinetics study in dogs
Design: species or system beagle dogs
Source text: Experimental purposes: To test the drug concentration in plasma of beagle dogs at different times after intravenous and intragastric administration of the test compound by LC/MS/MS using beagle dogs as the experimental animals. To study the pharmacokinetics of the test compound in beagle dogs in vivo and evaluate their pharmacokinetic characteristics.
Two healthy male and two female beagle dogs were divided into two groups according to the principle of similar body weight, with one male and one female in IV group and one male and one female in PO group. Animals were purchased from Beijing Marshall Biotechnology Co., Ltd.
IV group: Appropriate number of samples were weighed and prepared into 1 mg/mL solution respectively, and the mixture was stirred and ultrasonicated to reach a clear state, and the solvent was 10% HP-β-CD, and the pH value was adjusted to 5.74.
PO group: Appropriate amount of the solution prepared in IV group was diluted to 0.2 mg/mL with 10% HP-β-CD, and the pH value was adjusted to 5.8.
Administration: After fasting overnight, IV group was administered intravenously, and the dosage of the test compound was 1 mg/kg; PO group was administered intragastrically, and the dosage of the test compound was 2 mg/kg.
After the beagle dogs in the intravenous injection group were given the test compound respectively, and 200 μL of blood was collected from the peripheral vein at 0.0833, 0.25, 0.5, 1, 2, 4, 6, 8, 12 and 24 hours, and placed in a commercialized anticoagulant tube added with EDTA-K2 in advance. After intragastric administration of the test compound, 200 μL of blood was collected from the peripheral vein at 0.25, 0.5, 1, 2, 4, 6, 8, 12 and 24 hours, respectively, and placed in a commercialized anticoagulant tube added with EDTA-K2 in advance. After centrifugation (3,200 g, 4° C., 10 minutes), the plasma was collected, transferred to a pre-cooled centrifuge tube, quickly frozen in dry ice, and stored in a refrigerator at −60° C. or lower, until LC-MS/MS analysis. Animals were allowed to eat 4 hours after administration. LC/MS/MS method was used to determine the content of the test compound in the plasma of beagle dogs after intravenous and intragastric administration. The linear range of the method was 2.00 to 2000 nM.

AUC0-last (i.v. 1 mg/kg): 5.078 µM·h
Cl (i.v. 1 mg/kg): 3.44 mL/min/kg
T1/2 (i.v. 1 mg/kg): 23.1 h
Vdss (i.v. 1 mg/kg): 6.60 L/kg
AUC0-last (p.o. 2 mg/kg): 7.963 µM·h
Cmax (p.o. 2 mg/kg): 495 nM
T1/2 (p.o. 2 mg/kg): 19.2 h
F % (p.o. 2 mg/kg vs i.v. 1 mg/kg): 78.2%
SMILES: FCCCN1CC[C@H](Nc2cnc(C3=C(CC(F)(F)F)CCCc4c3ccc3[nH]nc(F)c43)cn2)C1 [Compound 11A]
